In article PMC4317238 (Pharmacology Research & Perspectives, 2015):
Ends that are not written are not given here.

Tests used:
[1] = cited from earlier work
[2] = system: their receptors; details: ref Rizzi et al. 2014; Ruzza et al. 2014; cited from earlier work
[3] = system: NPSR(−/−) mice; test: Recovery of righting reflex; type: in vivo, mouse (congenic to CD-1); details: diazepam 15 mg/kg i.p.
[4] = target: T1, mouse NPS receptor (NPSR) (Mus musculus, UniProt Q8BZP8); test: Calcium mobilization assay, agonist; type: cell-based; details: HEK293mNPSR; mean ± SEM
T1 sequence (Q8BZP8 1-371): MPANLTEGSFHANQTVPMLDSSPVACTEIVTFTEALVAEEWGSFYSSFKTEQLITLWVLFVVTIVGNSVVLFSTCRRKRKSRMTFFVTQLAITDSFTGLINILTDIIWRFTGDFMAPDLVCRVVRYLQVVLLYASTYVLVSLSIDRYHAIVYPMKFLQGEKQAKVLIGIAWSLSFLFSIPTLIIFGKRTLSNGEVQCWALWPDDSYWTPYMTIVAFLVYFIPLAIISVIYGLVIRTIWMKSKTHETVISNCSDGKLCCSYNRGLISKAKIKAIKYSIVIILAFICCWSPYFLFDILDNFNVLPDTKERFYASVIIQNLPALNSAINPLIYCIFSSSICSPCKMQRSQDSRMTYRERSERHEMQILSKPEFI

nociceptin/orphanin FQ [N/OFQ]
duration of action, N/OFQ ([1]; ref Rizzi et al. 2014): ~20 min | potency relative to PWT derivative, calcium mobilization [2]: more potent than their PWT derivatives

neurokinin A [NK-A]
potency relative to PWT derivative, calcium mobilization [2]: more potent than their PWT derivatives

CN1C(=O)CN=C(c2ccccc2)c2cc(Cl)ccc21 [diazepam]
sensitivity to diazepam, NPSR wild type vs. knockout [3]: no differences were measured

SFRNGVGTGMKKTSFQRAKS [NPS, neuropeptide S]
Emax (increase in intracellular calcium) [4]: 417 ± 34 % over the basal levels

substance P [SP]
duration of action, SP and PWT2-SP ([1]; ref Ruzza et al. 2014): ~5 min | potency relative to PWT derivative, calcium mobilization [2]: more potent than their PWT derivatives
